Reference: PubChem BioAssay (NCI)
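Interpolation was linear, between the two tested concentrations surrounding the appropriate level; five concentrations were tested over 48 hours in 96-well plates. The concentration for 50% growth inhibition is given as GI50. Definition used: TGI = concentration required for complete inhibition of growth.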

Legend:
Assay in all cases: growth of human tumour cells (NCI), 48 h; in the data active means GI50 below about 0.43 µM; inactive means the rest
[1] = tested on: HOP-62 NSCLC
[2] = tested on: NCI/ADR-RES ovarian
[3] = tested on: TK-10 renal
[4] = tested on: OVCAR-5 ovarian
[5] = tested on: UO-31 renal
[6] = tested on: T-47D breast
[7] = tested on: SF-295 CNS
[8] = tested on: IGROV1 ovarian
[9] = tested on: MOLT-4 leukemia
[10] = tested on: SF-268 CNS
[11] = tested on: SK-MEL-2 melanoma
[12] = tested on: UACC-257 melanoma
[13] = tested on: HT29 colon
[14] = tested on: SN12C renal
[15] = tested on: HCC-2998 colon
[16] = tested on: HCT-15 colon
[17] = tested on: COLO 205 colon
[18] = tested on: KM12 colon
[19] = tested on: OVCAR-8 ovarian
[20] = tested on: MDA-MB-231 breast
[21] = tested on: HL-60(TB) leukemia
[22] = tested on: K-562 leukemia
[23] = tested on: SK-OV-3 ovarian
[24] = tested on: CAKI-1 renal
[25] = tested on: SR leukemia
[26] = tested on: NCI-H522 lung
[27] = tested on: 786-0 renal
[28] = tested on: NCI-H23 lung
[29] = tested on: DU-145 prostate
[30] = tested on: LOX IMVI melanoma
[31] = tested on: NCI-H226 lung
[32] = tested on: OVCAR-4 ovarian
[33] = tested on: UACC-62 melanoma
[34] = tested on: OVCAR-3 ovarian
[35] = tested on: SNB-19 CNS
[36] = tested on: A498 renal
[37] = tested on: BT-549 breast
[38] = tested on: MALME-3M melanoma
[39] = tested on: M14 melanoma
[40] = tested on: NCI-H460 lung
[41] = tested on: U251 CNS
[42] = tested on: SF-539 CNS
[43] = tested on: RXF 393 renal
[44] = tested on: HS 578T breast
[45] = tested on: ACHN renal
[46] = tested on: EKVX NSCLC
[47] = tested on: HCT-116 colon
[48] = tested on: A549 NSCLC
[49] = tested on: CCRF-CEM leukemia
[50] = tested on: SW-620 colon
[51] = tested on: SK-MEL-28 melanoma
[52] = tested on: SK-MEL-5 melanoma
[53] = tested on: MCF7 breast
[54] = tested on: MDA-MB-435
[55] = tested on: SNB-75 CNS
[56] = tested on: RPMI-8226 leukemia
[57] = tested on: HOP-92 NSCLC
[58] = tested on: PC-3 prostate

CCNC(=O)Oc1ccc(/C(=C(/C)Cc2ccc(OC)cc2)c2ccc(OCCN(CC)CC)cc2)cc1
inactive: GI50 [1] 1.68 µM | GI50 [2] 2.99 µM | GI50 [3] 2.03 µM | GI50 [4] 3.42 µM | GI50 [5] 1.52 µM | GI50 [6] 1.3 µM | GI50 [7] 1.66 µM | GI50 [8] 2.59 µM | GI50 [9] 2.64 µM | GI50 [10] 1.98 µM | GI50 [11] 1.85 µM | GI50 [12] 1.79 µM | GI50 [13] 2.02 µM | GI50 [14] 1.93 µM | GI50 [15] 1.7 µM | GI50 [16] 1.51 µM | GI50 [17] 1.94 µM | GI50 [18] 2.01 µM | GI50 [19] 1.8 µM | GI50 [20] 1.78 µM | GI50 [21] 1.94 µM | GI50 [22] 2 µM | GI50 [23] 2.84 µM | GI50 [24] 1.64 µM | GI50 [25] 1.76 µM | GI50 [26] 2.16 µM | GI50 [27] 1.39 µM | GI50 [28] 2.09 µM | GI50 [29] 2.36 µM | GI50 [30] 1.66 µM | GI50 [31] 2.99 µM | GI50 [32] 2.31 µM | GI50 [33] 1.86 µM | GI50 [34] 1.69 µM | GI50 [35] 2.57 µM | GI50 [36] 2.58 µM | GI50 [37] 1.73 µM | GI50 [38] 1.64 µM | GI50 [39] 1.72 µM | GI50 [40] 1.85 µM | GI50 [41] 1.73 µM | GI50 [42] 1.61 µM | GI50 [43] 1.9 µM | GI50 [44] 2.18 µM | GI50 [45] 1.69 µM | GI50 [46] 1.7 µM | GI50 [47] 1.57 µM | GI50 [48] 1.87 µM | GI50 [49] 2.66 µM | GI50 [50] 1.81 µM | GI50 [51] 1.76 µM | GI50 [52] 1.55 µM | GI50 [53] 0.621 µM | GI50 [54] 1.67 µM | GI50 [55] 1.69 µM | GI50 [56] 1.99 µM
12.6 µM: TGI [31]
13.3 µM: TGI [23]
3.46 µM: TGI [50]
3.5 µM: TGI [40]
3.82 µM: TGI [14] | TGI [17]
6.09 µM: TGI [22]
4.5 µM: TGI [56]
5.83 µM: TGI [29]
6.16 µM: TGI [35]
3.62 µM: TGI [11] | TGI [39] | TGI [43] | TGI [48]
4.17 µM: TGI [26]
3.84 µM: TGI [24]
11.1 µM: TGI [36]
3.25 µM: TGI [7] | TGI [42]
3.53 µM: TGI [51]
4.23 µM: TGI [6]
3.18 µM: TGI [45] | TGI [54]
4.93 µM: TGI [55]
3.06 µM: TGI [16]
3.34 µM: TGI [34]
6.87 µM: TGI [8]
3.42 µM: TGI [12]
5.16 µM: TGI [44]
12.8 µM: TGI [4]
2.93 µM: TGI [52]
4.58 µM: TGI [18]
4.16 µM: TGI [37]
5.03 µM: TGI [46]
3.29 µM: TGI [15]
4.75 µM: TGI [10]
9.71 µM: TGI [9]
3.11 µM: TGI [47]
4.56 µM: TGI [21]
3.2 µM: TGI [41]
3.22 µM: TGI [30] | TGI [38]
3.38 µM: TGI [20] | TGI [33]
3.59 µM: TGI [19]
6.05 µM: TGI [3]
7.96 µM: TGI [49]
5.96 µM: TGI [25]
7.84 µM: TGI [32]
5.35 µM: TGI [28]
2.41 µM: TGI [53]
11.5 µM: TGI [2]
4.14 µM: TGI [1]
3.96 µM: TGI [13]
3.02 µM: TGI [5]
2.88 µM: TGI [27]

CN1CCN(C(=O)COc2ccc(/C=C3\CC4C5CC=C6CC(Cl)CCC6(C)C5CCC4(C)C3=O)cc2)CC1 (configuration not stated)
> 100 µM: TGI [1] | TGI [2] | TGI [3] | TGI [4] | TGI [5] | TGI [6] | TGI [7] | TGI [8] | TGI [10] | TGI [11] | TGI [14] | TGI [15] | TGI [17] | TGI [19] | TGI [20] | TGI [22] | TGI [23] | TGI [24] | TGI [26] | TGI [27] | TGI [28] | TGI [29] | TGI [31] | TGI [57] | TGI [32] | TGI [33] | TGI [34] | TGI [35] | TGI [36] | TGI [37] | TGI [38] | TGI [39] | TGI [41] | TGI [42] | TGI [43] | TGI [45] | TGI [46] | TGI [47] | TGI [48] | TGI [49] | TGI [51] | TGI [53] | TGI [58] | TGI [56]
inactive: GI50 [1] 36.4 µM | GI50 [2] > 100 µM | GI50 [3] 27.4 µM | GI50 [4] > 100 µM | GI50 [5] > 100 µM | GI50 [6] > 100 µM | GI50 [7] > 100 µM | GI50 [8] > 100 µM | GI50 [10] > 100 µM | GI50 [11] > 100 µM | GI50 [14] > 100 µM | GI50 [15] > 100 µM | GI50 [17] > 100 µM | GI50 [19] > 100 µM | GI50 [20] > 100 µM | GI50 [22] 2.61 µM | GI50 [23] > 100 µM | GI50 [24] > 100 µM | GI50 [26] > 100 µM | GI50 [27] 88.1 µM | GI50 [28] > 100 µM | GI50 [29] > 100 µM | GI50 [31] > 100 µM | GI50 [57] 10.4 µM | GI50 [32] > 100 µM | GI50 [33] > 100 µM | GI50 [34] > 100 µM | GI50 [35] > 100 µM | GI50 [36] > 100 µM | GI50 [37] 96.1 µM | GI50 [38] > 100 µM | GI50 [39] > 100 µM | GI50 [41] 3.33 µM | GI50 [42] > 100 µM | GI50 [43] 14.3 µM | GI50 [45] > 100 µM | GI50 [46] > 100 µM | GI50 [47] 3.08 µM | GI50 [48] > 100 µM | GI50 [49] 3.94 µM | GI50 [51] > 100 µM | GI50 [53] > 100 µM | GI50 [58] > 100 µM | GI50 [55] 19 µM | GI50 [56] 6.9 µM
56.7 µM: TGI [55]

CCCCCCCc1n(Cc2ccc3ccccc3c2)c2ccccc2[n+]1Cc1ccc2ccccc2c1
3.67 µM: TGI [44]
2.28 µM: TGI [23]
active: GI50 [10] 0.345 µM | GI50 [21] 0.186 µM | GI50 [57] 0.163 µM
inactive: GI50 [23] 0.87 µM | GI50 [44] 1.2 µM
1.49 µM: TGI [10]
0.67 µM: TGI [57]
0.569 µM: TGI [21]
